From patent publication US11957739B2, “Compositions and methods for treating cancer using RHOA dominant negative forms” (Dana-Farber Cancer Institute, Inc., priority 2017, dated 2024)

Key:
[1] = test system: CDH1-null cells; assay: Ectopic expression of RHOA dominant negative forms in CDH1-null cells; assay type: cell-based
Description: (§1) Diffuse Gastric Cancer (DGC) is a highly lethal variant of gastric cancer, which is prone to early invasion and metastasis, and lacks effective molecularly targeted therapies. DGC initiation typically follows loss of tumor suppressor CDH1 which encodes the cellular adhesion protein E-cadherin. Reduction in and/or loss of E-cadherin (CDH1) is the key hallmark of invasive lobular breast cancer and loss-of-function mutations targeting CDH1 are present in 50%-60% of invasive lobular breast cancer and are believed to be an early event often observed in matching lobular carcinoma in situ (McCart Reed et al. (2015) Breast Cancer Res. 17:12). […] These findings indicate that RHOA dominant negative forms can be used as an effective therapy for DGC and lobular breast cancer as well as other cancers with the EMT phenotype.

[2] = test system: cells with intact CDH1; assay: Ectopic expression of RHOA dominant negative forms in cells with intact CDH1; assay type: cell-based
Description: as §1

[3] = test system: CDH1-null stomach organoids; assay: RHOA ectopic expression in isogenic stomach organoids after tamoxifen-induced E-cadherin loss; assay type: cell-based, mouse; details: ectopic expression by lentivirus; Mist1CreER, Cdh1F/F organoids treated with tamoxifen to induce E-cadherin loss
Protocol: Mist1CreER, Cdh1^F/F organoids were infected with plx307 lenti-EGFP/RHOA-WT/RHO-T19N virus, and the stably infected organoids were selected by adding puro for 1 week. The cells were then treated with or without tamoxifen to activate Cre to induce E-cadherin loss. The RHOA ectopic expression and E-Cadherin loss were validated both Western blot and Tomato/GFP color switch determinations.
Mist1-CreERT2, Cdh1flox/flox, Tomation/GFP mice, which carry conditional alleles with loxP sites flanking exon 2-3 of Cdh1, were kindly provided by Timothy C. Wang at Columbia University. Cre recombinase was activated by oral administration of tamoxifen (Sigma, T5648) TAM (1-5 mg/0.2 ml corn oil, as indicated). All animal studies and procedures were approved by the ethics committees at Dana-Farber Cancer Institute.
The protocol as previously described in Miyoshi et al. (2013) Nat. Prot. 8:2471-2482 was performed as follows: Euthanize mice using a chemical reagent, open the stomach longitudinally and roughly remove contents on the paper towel. Rinse the tissue with ice cold PBS in a 90 mm petri dish, then wash the tissue with […] ice cold PBS in a 50 ml centrifuge tube by vigorous shaking. After washing, place the tissue in a 35 mm petri dish and bring the dish to a biological hood and mince the tissue with fine scissors. […]

[4] = test system: CDH1-null breast epithelial MCF10A cells; assay: Cell titer glo assay in MCF10A-CDH1-KO cells with Dox-inducible RHOA mutant virus; assay type: cell-based; details: Dox-inducible expression
Protocol: (§2) Isogenic MCF10A-CDH1-intact cells were infected with different constitutive RHOA mutant virus and the stably infected cells were selected by adding puro for 1 week. The cells were then plated in 96-well plates for analysis using a cell titer glo assay. The MCF10A-CDH1-K0 cells were infected with different Dox-inducible RHOA mutant viruses and the stably-infected cells were selected by adding puro for 1 week. The cells were then plated in 96-well plates with Dox induction for cell titer glo assay analysis.
(§3) Cell viability assay was performed by following the protocol of CellTiter-Glo® (Promega, Cat #G7570).

[5] = test system: CDH1-intact MCF10A cells; assay: Cell titer glo assay in isogenic MCF10A-CDH1-intact cells with constitutive RHOA mutant virus; assay type: cell-based; details: constitutive expression
Protocol: as §2, §3

[6] = test system: NUGC4 tumor; assay: NUGC4 xenograft tumor growth with Dox-induced mutant RHOA expression; assay type: in vivo; details: E-cadherin loss DGC cells in flank of nude mice; Dox food after 2 weeks; P<0.0001 Ctrl vs T19N
Protocol: (§4) Diffuse gastric cancer (DGC) NUGC4 cells were confirmed for total E-cadherin loss by Western blot analysis. The cells were then stably infected with Dox-inducible lenti-RHOA virus using puro selection. Three million NUGC4 cells were injected into the flank of nude mice. After 2 weeks, regular food was changed to food with Dox in order to induce mutant RHOA expression. N=3 mice for each group. P<0.0001: Ctrl-VS-T19N.
(§5) The 4-week-old male nude mice (BALB/cA-nu (nu/nu)) were injected subcutaneously at each flank with cells infected with dox inducible control or RHOA mutant virus. All animals were maintained and used in accordance with the guidelines of the Institutional Animal Care and Use Committee of Dana-Farber Cancer Institute.

[7] = test system: MKN45 tumor; assay: MKN45 xenograft tumor growth with Dox-induced mutant RHOA expression; assay type: in vivo; details: E-cadherin loss diffuse adenocarcinoma cells in flank of nude mice; Dox food after 2 weeks; P<0.0001 Ctrl vs T19N
Protocol: as §4, with “The diffuse adenocarcinoma MKN45” for “Diffuse gastric cancer (DGC) NUGC4”, “MKN45” for “NUGC4”
as §5

| Substance | cell-death in CDH1-null cells [1] | proliferation of CDH1-null cells [1] | inhibition of proliferation and induction of cell-death in cells with intact CDH1 [2] | killing of CDH1-null stomach organoids [3] | killing of CDH1-null MCF10A cells [4] | effect on CDH1-intact MCF10A cells [5] | NUGC4 tumor growth [6] | MKN45 tumor growth [7] |
| --- | --- | --- | --- | --- | --- | --- | --- | --- |
| G17V: Human RHOA G17V dominant negative form (SEQ ID NO: 2), ectopically expressed | induction of cell-death | significant inhibition of proliferation | not in cells with intact CDH1 |  |  |  |  |  |
| G17E: Human RHOA G17E dominant negative form (SEQ ID NO: 3), ectopically expressed | induction of cell-death | significant inhibition of proliferation | not in cells with intact CDH1 |  |  |  |  |  |
| RHOA-T19N: Human RHOA T19N dominant negative form (SEQ ID NO: 1), ectopically expressed from lentivirus | induction of cell-death | significant inhibition of proliferation | not in cells with intact CDH1 | specifically kills | specifically kills | spares | significantly inhibit | significantly inhibit |
